According to the supplement of paper PMC10307832:

What was measured:
Test in all cases: relative viability (nuclei count vs DMSO), 5 days (fraction); higher = more cells survive
[1] = compound: C1COCCN1C2=NC(=NC3=C2OC4=C3C=CC=N4)C5=CC(=CC=C5)NC(=O)C6=CN=C(C=C6)N + CCNC(=O)c1noc(-c2cc(C(C)C)c(O)cc2O)c1-c1ccc(CN2CCOCC2)cc1 [Luminespib] (partner 0.01 µM)
How it was run: (§1)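 The day after seeding in 1536-well plates, lung cancer cell lines were treated by pin tool with a single drug, or with a fixed anchor-drug dose together with five library-drug doses (not always all listed) in √10 steps. After 5 days, a combined fix-and-stain solution (final 0.05% Triton X-100, 1% formaldehyde, 1 ug/ml Hoechst) was added. Nuclei counted on 4× images gave relative viability as treated counts over vehicle counts, reported as the median of duplicate plates.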

SGI-1776 + Lapatinib = compound: CN1CCC(CNc2ccc3ncc(-c4cccc(OC(F)(F)F)c4)n3n2)CC1 [SGI-1776] + CS(=O)(=O)CCNCc1ccc(-c2ccc3ncnc(Nc4ccc(OCc5cccc(F)c5)c(Cl)c4)c3c2)o1 [Lapatinib] (partner 2 µM)
How it was run: as §1

[2] = compound: C1COCCN1C2=NC(=NC3=C2OC4=C3C=CC=N4)C5=CC(=CC=C5)NC(=O)C6=CN=C(C=C6)N + NC(=O)Nc1cc(-c2cccc(F)c2)sc1C(=O)N[C@H]1CCCNC1 [AZD7762] (partner 0.2 µM)
How it was run: as §1

[3] = compound: C1COCCN1C2=NC(=NC3=C2OC4=C3C=CC=N4)C5=CC(=CC=C5)NC(=O)C6=CN=C(C=C6)N + C[C@@H](Oc1cc(-c2cnn(C3CCNCC3)c2)cnc1N)c1c(Cl)ccc(F)c1Cl [Crizotinib] (partner 1 µM)
How it was run: as §1

| Cell Line | relative viability ([1]; first compound 0.02 µM) | relative viability ([1]; first compound 0.06325 µM) | relative viability ([1]; first compound 0.2 µM) | relative viability ([1]; first compound 0.6325 µM) | relative viability ([1]; first compound 2 µM) | relative viability (SGI-1776 + Lapatinib; first compound 0.08 µM) | relative viability (SGI-1776 + Lapatinib; first compound 0.8 µM) | relative viability (SGI-1776 + Lapatinib; first compound 2.53 µM) | relative viability (SGI-1776 + Lapatinib; first compound 8 µM) | relative viability ([2]; first compound 0.02 µM) | relative viability ([2]; first compound 0.06325 µM) | relative viability ([2]; first compound 0.2 µM) | relative viability ([2]; first compound 0.6325 µM) | relative viability ([2]; first compound 2 µM) | relative viability ([3]; first compound 0.02 µM) | relative viability ([3]; first compound 0.06325 µM) | relative viability ([3]; first compound 0.2 µM) | relative viability ([3]; first compound 0.6325 µM) | relative viability ([3]; first compound 2 µM) |
| --- | --- | --- | --- | --- | --- | --- | --- | --- | --- | --- | --- | --- | --- | --- | --- | --- | --- | --- | --- |
| NCI-H650 | 0.873 | 0.756 | 0.788 | 0.783 | 0.698 | 0.99 | 0.955 | 0.747 | 0.795 | 1.08 | 1 | 0.993 | 0.809 | 0.852 | 0.654 | 0.713 | 0.798 | 0.755 | 0.559 |
| LU99A | 0.265 | 0.221 | 0.235 | 0.207 | 0.266 | 1.03 | 1.16 | 1.07 | 0.902 | 0.433 | 0.416 | 0.233 | 0.319 | 0.295 | 0.602 | 0.65 | 0.477 | 0.49 | 0.327 |
| NCI-H2347 | 0.37 | 0.283 | 0.341 | 0.342 | 0.315 | 1.13 | 0.965 | 0.948 | 0.869 | 0.768 | 0.787 | 0.683 | 0.666 | 0.618 | 0.603 | 0.678 | 0.744 | 0.759 | 0.649 |
| HCC-827 | 0.634 | 0.557 | 0.65 | 0.586 | 0.456 | 0.168 | 0.201 | 0.16 | 0.194 | 0.191 | 0.184 | 0.167 | 0.202 | 0.198 | 0.905 | 0.97 | 0.91 | 0.985 | 0.93 |
| CAL-12T | 0.465 | 0.602 | 0.21 | 0.418 | 0.267 | 0.635 | 0.61 | 0.871 | 0.598 | 0.632 | 0.617 | 0.632 | 0.673 | 0.49 | 0.843 | 0.634 | 0.688 | 0.559 | 0.507 |
| PC-14 | 0.184 | 0.189 | 0.13 | 0.151 | 0.148 | 0.337 | 0.31 | 0.261 | 0.209 | 0.349 | 0.352 | 0.242 | 0.332 | 0.23 | 1.01 | 1.07 | 0.865 | 0.784 | 0.396 |
| NCI-H23 | 0.185 | 0.203 | 0.191 | 0.208 | 0.212 | 1.21 | 0.984 | 0.917 | 1.17 | 0.241 | 0.23 | 0.24 | 0.174 | 0.216 | 0.56 | 0.487 | 0.38 | 0.511 | 0.344 |
| NCI-H727 | 0.482 | 0.317 | 0.323 | 0.335 | 0.346 | 0.933 | 1.1 | 0.826 | 0.793 | 0.528 | 0.678 | 0.812 | 0.602 | 0.755 | 0.908 | 0.962 | 0.739 | 0.725 | 0.505 |
| HCC-44 | 0.99 | 1.17 | 1.05 | 1.22 | 0.687 | 1.04 | 1.15 | 1.01 | 0.962 | 0.907 | 1.05 | 1.04 | 0.991 | 1.14 | 0.879 | 0.927 | 0.835 | 0.887 | 0.624 |
| A-427 | 0.812 | 0.951 | 0.982 | 0.872 | 0.544 | 1.05 | 1.02 | 1.01 | 0.966 | 0.788 | 0.746 | 0.673 | 0.655 | 0.689 | 0.895 | 0.881 | 0.738 | 0.809 | 0.406 |
| ABC-1 | 0.383 | 1.28 | 0.473 | 0.739 | 0.475 | 1.36 | 1.16 | 1.28 | 1.1 | 0.793 | 0.638 | 0.608 | 1.03 | 0.684 | 1.02 | 1.29 | 0.93 | 1.33 | 0.666 |
| LK-2 | 0.193 | 0.196 | 0.201 | 0.169 | 0.175 | 1.13 | 1.06 | 0.781 | 0.75 | 0.427 | 0.406 | 0.378 | 0.416 | 0.221 | 0.21 | 0.247 | 0.203 | 0.279 | 0.258 |
| NCI-H2085 | 0.386 | 0.46 | 0.402 | 0.372 | 0.327 | 0.838 | 0.847 | 0.748 | 0.687 | 0.934 | 0.969 | 0.874 | 0.646 | 0.598 | 0.971 | 0.947 | 0.817 | 0.887 | 0.522 |
| NCI-H647 | 0.31 | 0.193 | 0.189 | 0.125 | 0.127 | 1.17 | 0.915 | 1.01 | 0.601 | 0.481 | 0.627 | 0.373 | 0.527 | 0.359 | 1.16 | 1.17 | 0.943 | 1.09 | 0.283 |
| LC-2-ad | 0.857 | 1.08 | 1.02 | 1.06 | 0.872 | 1.04 | 0.95 | 1.01 | 0.88 | 0.939 | 0.9 | 0.831 | 0.805 | 0.585 | 0.486 | 0.494 | 0.411 | 0.5 | 0.387 |
| NCI-H3122 | 0.0667 | 0.0713 | 0.0835 | 0.0904 | 0.077 | 0.964 | 1.05 | 1.07 | 0.988 | 0.973 | 1.01 | 0.99 | 0.973 | 0.667 | 0.312 | 0.236 | 0.242 | 0.271 | 0.24 |
| LCLC-97TM1 | 0.787 | 0.908 | 0.739 | 0.826 | 0.566 | 1 | 0.79 | 1.14 | 0.95 | 0.19 | 0.236 | 0.231 | 0.258 | 0.256 | – | 0.407 | 0.321 | 0.341 | 0.308 |
